Data taken from patent publication US20070232567A1, “Formulations Of Low Dose Non-Steroidal Anti-Inflammatory Drugs And Beta-Cyclodextrin” (priority 2006, published 2007).

System: patients with moderate-to-severe post-surgical (dental) pain
Assay: Randomized, double-blind, single-dose, placebo- and comparator-controlled study of pain relief by administered dose
Format: in vivo, human
Description: A 336-patient, seven treatment arm, randomized, double-blind, single-dose, and placebo- and comparator-controlled, parallel-group study was conducted. Patients were randomly assigned to receive a single dose of either diclofenac sodium solubilized with hydroxypropyl-beta-cyclodextrin (hereinafter “DIC”), ketorolac tromethamine, or placebo.
Bolus IV injectable 2 ml solutions were prepared by solubilizing diclofenac sodium with hydroxypropyl-beta-cyclodextrin. The formulation strengths were as follows: • Formulation: Diclofenac sodium solubilized with hydroxypropyl-β-cyclodextrin • Strengths: 75 mg, 37.5 mg, 18.75 mg, 9.4 mg and 3.75 mg • Dosage: Bolus IV injection (no less than 15 sec) • Batch Number: 063004 (PPS4010) • Manufacturer: Manufactured for Javelin by Precision Pharma • Storage Conditions: Room temperature
Active Control/Comparator: • Formulation: Ketorolac Tromethamine • Strength: 30 mg • Dosage: Bolus IV injection (no less than 15 sec) • Batch Number: 21-430-DK • Manufacturer: Abbott Labs • Storage Conditions: Room temperature
Pain was assessed by each patient at Baseline (0 hour: Visual Analog Scale (VAS) and categorical pain intensity only), at 5, 15, 30 and 45 minutes, and at 1, 1.5, 2, 3, 4, 5, 6, 7, 8, 10, 12 and 24 hours after administration of study medication and immediately prior to the first dose of rescue medication. At each post-dose time period, levels of pain intensity (categorical and VAS) and pain relief (categorical and VAS) was assessed by each patient. […]
The presence of a dose-response was tested with a step-down testing procedure. Total pain relief (TOTPAR), peak pain relief, pain intensity difference (SPID), summed peak reduction in pain intensity difference (SPRID), and patient global evaluation was analyzed with analysis of variance (ANOVA) with treatment, center, and baseline categorical pain intensity as factors. […] Time to onset of perceptible relief and time to onset of meaningful relief was analyzed with survival analysis techniques. […] A 95% confidence interval for each estimated median time to event was calculated. […]

## O=C(c1ccccc1)c1ccc2n1CCC2C(=O)O (stereo not drawn) [ketorolac, ketorolac tromethamine]
30 mg single bolus IV injection (active comparator)
  % Maximum Effect (TOTPAR): 100%
30 mg single bolus IV injection (active comparator), value (SEM)
  TOTPAR (Sum of Pain Relief VAS 0–100 mm ratings 0–6 hours): 400.3 (SEM 36)
30 milligrams
  peak analgesic response compared with that of diclofenac (about 80% pain relief): Similar
